Reference: US10064848B2, “Pyridic ketone derivatives, method of preparing same, and pharmaceutical application thereof” (Shanghai Hengrui Pharmaceutical Co., Ltd., priority 2013, dated 2018)

Target: T1, MAP2K2 (MEK2) Recombinant Human Protein (Homo sapiens, UniProt P36507)
T1 construct: purchased Invitrogen PV3615 (MEK2); PV3314 (ERK2)
Test: MEK2 kinase inhibition assay (Z'-LYTE, MEK2/ERK2 coupled)
Assay type: biochemical
Conditions: recombinant human MEK2 with ERK2, Z'-LYTE, 1.5 hours at 25° C; read-out: IC50 for inhibiting MEK kinase (MEK2)
Description: MEK2 kinase activity was tested in vitro by the following method.
MEK kinase used in the assay:
MAP2K2 (MEK2) Recombinant Human Protein (Invitrogen, Catalog No. PV3615)
MAPK1 (ERK2) Recombinant Human Protein (Invitrogen, Catalog No. PV3314)
Kit used in the assay: Z′-LYTE™ Kinase Assay Kit-Ser/Thr 03 Peptide (Invitrogen, Catalog No. PV3176).
The following in vitro assay was used to determine the activity of the compounds of the present invention for inhibiting the […] MEK kinase. The test compound was dissolved in dimethyl sulfoxide to the desired concentration. 1× Buffer A (Invitrogen, Catalog No. PV3189) was prepared, ATP was diluted with 1× Buffer A to obtain 400 μM ATP solution, appropriate amounts of Z′-LYTE™ Ser/Thr 03 Peptide (Invitrogen, Catalog No. PV3200), MEK kinase (MEK 2) enzymes, (ERK2) enzymes and 1× Buffer A were mixed, and appropriate amounts of Z′-LYTE™ Ser/Thr 03 phosphoPeptide substrate (Invitrogen, Catalog No. PV3215) and 1× Buffer A were formulated into a mixture to be tested. The 4% DMSO solution of the test compound was prepared from 1× buffer and DMSO solution of the test compound. 2.5 μL DMSO solution of the test compound was added to a reaction well, and then 2.5 μL of 400 μM ATP solution, 5 μL of enzyme and substrate mixture were added to become a 10 μL reaction system. The reaction system was incubated for 1.5 hours at 25° C., and a mixture was prepared according to Reagent A:Buffer B=1:1024. 5 μL of a mixture of Reagent A (Invitrogen, Catalog No. PV3295) and Buffer B (Invitrogen, Item No. P3127) was added to a reaction well, the reaction system was incubated for 60 minutes at 25° C., and then the fluorescence was read by a NovoStar ELISA with excitation wavelength: 400 nm, and emission wavelength: 445 nm and 520 nm.
The above assay was used to determine the biochemical activity of the compounds of the present invention for inhibiting MEK kinase (MEK2).

T1 sequence (P36507 whole entry): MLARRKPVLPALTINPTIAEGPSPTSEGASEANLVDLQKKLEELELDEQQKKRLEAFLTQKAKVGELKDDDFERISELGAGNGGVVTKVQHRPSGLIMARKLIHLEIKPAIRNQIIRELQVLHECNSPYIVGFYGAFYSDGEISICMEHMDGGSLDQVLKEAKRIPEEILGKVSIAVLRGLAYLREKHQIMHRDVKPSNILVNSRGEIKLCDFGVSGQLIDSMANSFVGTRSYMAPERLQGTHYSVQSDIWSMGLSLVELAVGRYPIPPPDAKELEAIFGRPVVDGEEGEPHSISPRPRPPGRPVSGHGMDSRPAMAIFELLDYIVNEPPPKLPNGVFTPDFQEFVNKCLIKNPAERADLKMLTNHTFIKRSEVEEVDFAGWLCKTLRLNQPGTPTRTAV

IC50 [nM]	SMILES
19.8	CCS(=O)(=O)Nc1cccc(Oc2cc(=O)n(C)c(Nc3ccc(I)cc3F)c2C(N)=O)c1C [Example 3, 4-(3-(ethylsulfonamido)-2-methylphenoxy)-2-((2-fluoro-4-iodophenyl)amino)-1-methyl-6-oxo-1,6-dihydropyridine-3-carboxamide]
121	Cc1cc(F)ccc1Oc1cc(=O)n(C)c(Nc2ccc(I)cc2F)c1C(N)=O [Example 22, 4-(4-fluoro-2-methylphenoxy)-2-((2-fluoro-4-iodophenyl)amino)-1-methyl-6-oxo-1,6-dihydropyridine-3-carboxamide]
217	Cc1ncccc1Oc1cc(=O)n(C)c(Nc2ccc(I)cc2F)c1C(N)=O [Example 29, 2-((2-fluoro-4-iodophenyl)amino)-1-methyl-4-((2-methylpyridin-3-yl)oxy)-6-oxo-1,6-dihydropyridine-3-carboxamide]
351	Cc1ccc(Oc2cc(=O)n(C)c(Nc3ccc(I)cc3F)c2C(N)=O)cn1 [Example 31, 2-((2-fluoro-4-iodophenyl)amino)-1-methyl-4-((6-methylpyridin-3-yl)oxy)-6-oxo-1,6-dihydropyridine-3-carboxamide]
108	Cc1c(F)cccc1Oc1cc(=O)n(C)c(Nc2ccc(I)cc2F)c1C(N)=O [Example 1, 4-(3-fluoro-2-methylphenoxy)-2-((2-fluoro-4-iodophenyl)amino)-1-methyl-6-oxo-1,6-dihydropyridine-3-carboxamide]
